Measured values: ChEMBL document CHEMBL1201862, “PubChem BioAssay data set” (2004)
Where “and” joins values, the source holds several entries; their conditions need not be identical. Identical values can stand only once.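 Briefly, cells in 96-well plates were exposed to five compound concentrations for 48 h, and endpoints were estimated by linear interpolation. GI50 is the concentration that inhibits growth by half.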 Calls of active or inactive are those of the source. Cut-off read from the data, not from the text of the source: active = GI50 up to about 1.1 µM and inactive = higher.

What was measured:
Test in all cases: growth of human tumour cells (NCI), 48 h
[1] = tested on: OVCAR-3
[2] = tested on: NCI-H522
[3] = tested on: MDA-N
[4] = tested on: CCRF-CEM
[5] = tested on: SF-268
[6] = tested on: Hs-578T
[7] = tested on: T47D
[8] = tested on: SF-539
[9] = tested on: IGROV-1
[10] = tested on: MCF7
[11] = tested on: COLO 205
[12] = tested on: MDA-MB-435
[13] = tested on: HT-29
[14] = tested on: DU-145
[15] = tested on: HOP-62
[16] = tested on: KM12
[17] = tested on: HCC 2998
[18] = tested on: SR
[19] = tested on: A549
[20] = tested on: UACC-62

| Structure (SMILES) | GI50 [1] | GI50 [2] | GI50 [3] | GI50 [4] | GI50 [5] | GI50 [6] | GI50 [7] | GI50 [8] | GI50 [9] | GI50 [10] | GI50 [11] | GI50 [12] | GI50 [13] | GI50 [14] | GI50 [15] | GI50 [16] | GI50 [17] | GI50 [18] | GI50 [19] | GI50 [20] |
| --- | --- | --- | --- | --- | --- | --- | --- | --- | --- | --- | --- | --- | --- | --- | --- | --- | --- | --- | --- | --- |
| O=C1N/C(=N/N=C\C(O)C(O)C(O)C(O)CO)N/C1=C/c1ccc(Cl)cc1 (stereo unspecified) | 43.6 µM (inactive) and 31.6 µM (inactive) | 55.6 µM (inactive) and 58.1 µM (inactive) | > 100 µM (inactive) | 40.4 µM (inactive) | > 100 µM (inactive) and 98.2 µM (inactive) | > 100 µM (inactive) | 49.7 µM (inactive) and 36.6 µM (inactive) | > 100 µM (inactive) | > 100 µM (inactive) | > 100 µM (inactive) | > 100 µM (inactive) | > 100 µM (inactive) | > 100 µM (inactive) | > 100 µM (inactive) | > 100 µM (inactive) | > 100 µM (inactive) | 95.7 µM (inactive) and 99.3 µM (inactive) | 47.2 µM (inactive) | > 100 µM (inactive) | – |
| O=[N+]([O-])c1ccc(-c2nc3ccccc3o2)cc1 | > 100 µM (inactive) | > 100 µM (inactive) | > 100 µM (inactive) | 40.4 µM (inactive) | > 100 µM (inactive) | > 100 µM (inactive) | > 100 µM (inactive) | > 100 µM (inactive) | > 100 µM (inactive) | > 100 µM (inactive) | > 100 µM (inactive) | > 100 µM (inactive) | – | > 100 µM (inactive) | 69 µM (inactive) | > 100 µM (inactive) | > 100 µM (inactive) | > 100 µM (inactive) | > 100 µM (inactive) | > 100 µM (inactive) |
| O=[N+]([O-])CC(SCc1ccccc1)c1ccc2c(c1)OCO2 (stereo unspecified) | 6.12 µM (inactive) | 11.5 µM (inactive) | 2.45 µM (inactive) | 2.54 µM (inactive) | 9.4 µM (inactive) | 6.31 µM (inactive) | 19.6 µM (inactive) | 4.01 µM (inactive) | 5.6 µM (inactive) | 3.04 µM (inactive) | 8.24 µM (inactive) | 2.5 µM (inactive) | 2.61 µM (inactive) | 14.5 µM (inactive) | 17.4 µM (inactive) | 6.84 µM (inactive) | 5.57 µM (inactive) | 3.13 µM (inactive) | 7.67 µM (inactive) | 9.89 µM (inactive) |
| CN/N=C(/CCN1CCCC1)CC(c1ccccc1)c1c(O)c2ccccc2oc1=O (stereo unspecified) | > 100 µM (inactive) | > 100 µM (inactive) | > 100 µM (inactive) | > 71.9 µM (inactive) | > 100 µM (inactive) | > 100 µM (inactive) | 49.4 µM (inactive) | > 100 µM (inactive) | > 100 µM (inactive) | > 100 µM (inactive) | 34.9 µM (inactive) | > 100 µM (inactive) | > 100 µM (inactive) | > 100 µM (inactive) | > 100 µM (inactive) | > 100 µM (inactive) | > 100 µM (inactive) | > 94.6 µM (inactive) | > 100 µM (inactive) | > 100 µM (inactive) |
| CCn1c(SCC(=O)NNC(=S)Nc2ccc([N+](=O)[O-])cc2)nc2ccccc2c1=O | 39.2 µM (inactive) | 39.8 µM (inactive) | > 100 µM (inactive) | 37.2 µM (inactive) | 60.1 µM (inactive) | > 100 µM (inactive) | 64.3 µM (inactive) | > 100 µM (inactive) | > 100 µM (inactive) | 83.4 µM (inactive) | 47.5 µM (inactive) | > 100 µM (inactive) | – | > 100 µM (inactive) | 81.1 µM (inactive) | 68.2 µM (inactive) | 50.1 µM (inactive) | 23 µM (inactive) | > 100 µM (inactive) | 48.9 µM (inactive) |
| CN1CN(c2ccccc2)C2(CCN(CCCC3(c4cccs4)OCCO3)CC2)C1=O | > 100 µM (inactive) | > 100 µM (inactive) | > 100 µM (inactive) | > 100 µM (inactive) | > 100 µM (inactive) | > 100 µM (inactive) | > 100 µM (inactive) | > 100 µM (inactive) | > 100 µM (inactive) | > 100 µM (inactive) | > 100 µM (inactive) | > 100 µM (inactive) | 36.1 µM (inactive) | > 100 µM (inactive) | > 100 µM (inactive) | > 100 µM (inactive) | > 100 µM (inactive) | > 100 µM (inactive) | > 100 µM (inactive) | > 100 µM (inactive) |
| CCOC(=O)n1cncc1CC(NC(=O)Cc1c(C(=O)C=C(C)C)[nH]c2ccccc12)C(=O)OC (stereo unspecified) | 17.7 µM (inactive) | 3.56 µM (inactive) | 23 µM (inactive) | 0.708 µM (active) | 18 µM (inactive) | 19.3 µM (inactive) | 2.8 µM (inactive) | 19.5 µM (inactive) | 14.9 µM (inactive) | 24.7 µM (inactive) | 18.1 µM (inactive) | 18.2 µM (inactive) | 22.3 µM (inactive) | 18.5 µM (inactive) | – | 19.3 µM (inactive) | 13.9 µM (inactive) | 3.56 µM (inactive) | 19.2 µM (inactive) | 20.3 µM (inactive) |
| Cc1ccc(NC(=O)/C(Cc2cc(=O)oc3cc(O)ccc23)=N\NC(=O)C[N+](C)(C)C)cc1C | > 100 µM (inactive) | > 100 µM (inactive) | > 100 µM (inactive) | > 100 µM (inactive) | > 100 µM (inactive) | > 100 µM (inactive) | > 100 µM (inactive) | > 100 µM (inactive) | > 100 µM (inactive) | > 100 µM (inactive) | > 100 µM (inactive) | > 100 µM (inactive) | > 100 µM (inactive) | > 100 µM (inactive) | > 100 µM (inactive) | > 100 µM (inactive) | > 100 µM (inactive) | > 100 µM (inactive) | > 100 µM (inactive) | > 100 µM (inactive) |
| C=CCCCCNC(=O)C[C@@H]1C2=C(CC[C@H]1O[Si](C)(C)C(C)(C)C)N1C(=O)CCC/C=C\C1C2 (stereo partly specified) | 14 µM (inactive) | 11.7 µM (inactive) | 16.3 µM (inactive) | 10.6 µM (inactive) | 15.5 µM (inactive) | 16.1 µM (inactive) | 12.7 µM (inactive) | 17.5 µM (inactive) | 15.6 µM (inactive) | 12.2 µM (inactive) | 13.6 µM (inactive) | 14.6 µM (inactive) | 12.3 µM (inactive) | 15 µM (inactive) | 17.9 µM (inactive) | 15 µM (inactive) | 10.4 µM (inactive) | 5.75 µM (inactive) | 13.1 µM (inactive) | 12.9 µM (inactive) |
| CCOC(=O)CC1C(O)C(=O)N(C)C1c1ccccc1 (stereo unspecified) | > 100 µM (inactive) | > 100 µM (inactive) | > 100 µM (inactive) | > 100 µM (inactive) | > 100 µM (inactive) | > 100 µM (inactive) | > 100 µM (inactive) | > 100 µM (inactive) | > 100 µM (inactive) | > 100 µM (inactive) | > 100 µM (inactive) | > 100 µM (inactive) | > 100 µM (inactive) | > 100 µM (inactive) | > 100 µM (inactive) | > 100 µM (inactive) | > 100 µM (inactive) | > 100 µM (inactive) | > 100 µM (inactive) | > 100 µM (inactive) |
| CCCCNC(=S)c1ccc(OC(=O)Nc2ccc(Cl)cc2)cc1 | 66.5 µM (inactive) | 24.5 µM (inactive) | > 100 µM (inactive) | 26.3 µM (inactive) | 49.1 µM (inactive) | 57.7 µM (inactive) | 58.6 µM (inactive) | > 100 µM (inactive) | 3.02 µM (inactive) | 41.7 µM (inactive) | 15.9 µM (inactive) | 70.1 µM (inactive) | 8.18 µM (inactive) | > 100 µM (inactive) | > 100 µM (inactive) | 2.75 µM (inactive) | > 100 µM (inactive) | 16.3 µM (inactive) | 39.1 µM (inactive) | 0.914 µM (active) |
| CC(=O)OCC1OC(N2C(S)=C(C#N)C(c3ccco3)C(C(C)=O)=C2c2ccccc2)C(OC(C)=O)C(OC(C)=O)C1OC(C)=O (stereo unspecified) | 77.6 µM (inactive) | 32.1 µM (inactive) | 26.2 µM (inactive) | 28.3 µM (inactive) | > 100 µM (inactive) | 17.7 µM (inactive) | > 100 µM (inactive) | 78.5 µM (inactive) | 54.5 µM (inactive) | > 100 µM (inactive) | 64.9 µM (inactive) | > 100 µM (inactive) | > 100 µM (inactive) | 79.8 µM (inactive) | 16.9 µM (inactive) | > 100 µM (inactive) | > 100 µM (inactive) | > 100 µM (inactive) | 49.4 µM (inactive) | 34 µM (inactive) |
| c1ccc(CN2CCC(=NN3CCCCC3)CC2)cc1 | 44.2 µM (inactive) | 54.6 µM (inactive) | 83 µM (inactive) | 31.8 µM (inactive) | 88.1 µM (inactive) | 35 µM (inactive) | 37.1 µM (inactive) | > 100 µM (inactive) | > 100 µM (inactive) | 43.3 µM (inactive) | 28.1 µM (inactive) | 72.8 µM (inactive) | 32.4 µM (inactive) | > 100 µM (inactive) | > 100 µM (inactive) | 78.3 µM (inactive) | 51.1 µM (inactive) | 34.4 µM (inactive) | > 100 µM (inactive) | > 100 µM (inactive) |
| C#CCCCOc1ncccn1 | > 100 µM (inactive) | > 100 µM (inactive) | > 100 µM (inactive) | > 10 µM (inactive) | > 100 µM (inactive) | > 100 µM (inactive) | > 100 µM (inactive) | > 100 µM (inactive) | > 100 µM (inactive) | > 100 µM (inactive) | > 100 µM (inactive) | > 100 µM (inactive) | > 100 µM (inactive) | > 100 µM (inactive) | > 100 µM (inactive) | > 100 µM (inactive) | > 100 µM (inactive) | > 100 µM (inactive) | > 100 µM (inactive) | > 100 µM (inactive) |
